Key:
Type in all cases: in vivo
Papaver rhoeas = assay: greenhouse post-emergence treatment, PAPRH
Procedure, shortened: (§1)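 Scale 0–100 damage rating (100 = complete destruction of above-ground parts, 0 = normal growth), read 2 to 4 weeks after post-emergence application of aqueous spray liquor to plants 3–15 cm tall.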

Stellaria media = assay: greenhouse post-emergence treatment, STEME; conditions: 20 DAT, mesosulfuron solo 1 gai/ha
Procedure, shortened: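 Plants in loamy sand (~3.0% humus) were sprayed post-emergence at 3–15 cm height with actives in a water spray liquor made from 10% by weight emulsion concentrates. Plants were kept at 10-25° C. or 20-35° C. by species and rated over 2–4 weeks on a 0–100 scale (100 = complete destruction). Colby's E = X+Y−(X·Y/100) gave the expected additive effect.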

Galium aparine = assay: greenhouse post-emergence treatment, GALAP; conditions: 20 DAT
Procedure, shortened: as §1

Echinocloa crus-galli = assay: greenhouse post-emergence treatment, ECHCG
Experimental: (§2) The culture containers used were plastic pots containing loamy sand with approximately 3.0% of humus as substrate. The seeds of the test plants were sown separately for each species.
(§3) For the post-emergence treatment, the test plants were grown to a plant height of from 3 to 15 cm, depending on the plant habit, and only then treated with the active compounds which had been suspended or emulsified in water. To this end, the test plants were either sown directly, and grown in the same containers, or they were first grown separately as seedlings and transplanted into the test containers a few days prior to treatment.
(§4) Depending on the species, the plants were kept at 10-25° C. and 20-35° C., respectively.
(§5) The test period extended over 2 to 4 weeks. During this time, the plants were tended and their response to the individual treatments was evaluated.
(§6) Evaluation was carried out using a scale from 0 to 100. 100 means no emergence of the plants, or complete destruction of at least the above-ground parts, and 0 means no damage or normal course of growth. A good herbicidal activity is given at values of at least 70, and very good herbicidal activity is given at values of at least 85.
(§7) The respective stated components A and B, and if appropriate, C were formulated as a 10% by weight strength emulsion concentrate and, with addition of the amount of solvent system, introduced into the spray liquor used for applying the active compound. In the examples, the solvent used was water.
(§8) In the examples below, using the method of S. R. Colby (1967) “Calculating synergistic and antagonistic responses of herbicide combinations”, Weeds 15, p. 22ff., the value E, which is expected if the activity of the individual active compounds is only additive, was calculated. E=X+Y−(X·Y/100) where X=effect in percent using herbicide A at an application rate a; • Y=effect in percent using herbicide B at application rate b; • E=expected effect (in %) of herbicide A+herbicide B at application rates a+b.

Setaria viridis = assay: greenhouse post-emergence treatment, SETVI
Procedure, shortened: (§9)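 Scoring ran on a 0-100 scale, 100 meaning no emergence or destroyed above-ground parts, over a 2-4 week period; Colby formula E=X+Y−(X·Y/100) gave expected mixture effects. Species grew separately in loamy sand (about 3.0% humus) at 10-25° C or 20-35° C, with water as solvent.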

Polygonum convolvulus = assay: greenhouse post-emergence treatment, POLCO
Experimental: as §2, §3, §4, §5, §6, §7, §8

Matricaria chamomilla = assay: greenhouse post-emergence treatment, MATCH
Procedure, shortened: as §1

Ambrosia elatior = assay: greenhouse post-emergence treatment, AMBEL
Experimental: as §2, §3, §4, §5, §6, §7, §8

Lolium multiflorum = assay: greenhouse post-emergence treatment, LOLMU
Procedure, shortened: as §9

Digitaria sanguinalis = assay: greenhouse post-emergence treatment, DIGSA
Procedure, shortened: as §9

Apera spica-venti = assay: greenhouse post-emergence treatment, APESV; conditions: 21 DAT
Experimental: as §2, §3, §4, §5, §6, §7, §8

Bromus sterilis = assay: greenhouse post-emergence treatment, BROST; conditions: 21 DAT
Procedure, shortened: as §9

Alopecurus myosuroides = assay: greenhouse post-emergence treatment, ALOMY; conditions: 21 DAT
Procedure, shortened: as §9

Poa annua = assay: greenhouse post-emergence treatment, POAAN; conditions: 21 DAT
Experimental: as §2, §3, §4, §5, §6, §7, §8

[1] = 20 DAT, mesosulfuron solo 1 gai/ha
[2] = 20 DAT, mesosulfuron solo 2 gai/ha
[3] = 20 DAT, mesosulfuron solo 8 gai/ha
[4] = 20 DAT, mesosulfuron solo 4 gai/ha
[5] = 21 DAT, topramezone solo 12 gai/ha
[6] = 21 DAT, topramezone solo 24 gai/ha
[7] = 21 DAT, topramezone solo 3 gai/ha
[8] = 21 DAT, topramezone solo 6 gai/ha

COC(=O)c1ccc(CNS(C)(=O)=O)cc1S(=O)(=O)NC(=O)Nc1nc(OC)cc(OC)n1 [mesosulfuron]
% activity (Papaver rhoeas; [1]): 70%
% activity (Papaver rhoeas; [2]): 90%
% activity (Papaver rhoeas; [3]): 98%
% activity (Papaver rhoeas; mesosulfuron solo (Mesosulfuron - Methyl WG […]), 1 gai/ha, 20 DAT, PAPRH): 70%
% activity (Stellaria media): 95%
% activity (Galium aparine; mesosulfuron solo 4 gai/ha): 65%
% activity (Galium aparine; mesosulfuron solo 8 gai/ha): 75%
% activity (Galium aparine; mesosulfuron solo (Mesosulfuron - Methyl WG […]), 1 gai/ha, GALAP): 55%
% activity (Galium aparine; mesosulfuron solo (Mesosulfuron - Methyl WG […]), 2 gai/ha, GALAP): 65%
% activity (Galium aparine; mesosulfuron solo (Mesosulfuron - Methyl WG […]), 4 gai/ha, GALAP): 65%
% activity (Galium aparine; mesosulfuron solo (Mesosulfuron - Methyl WG […]), 8 gai/ha, GALAP): 75%
% activity (Echinocloa crus-galli; [2]): 0%
% activity (Setaria viridis; [3]): 85%
% activity (Setaria viridis; mesosulfuron solo (Mesosulfuron - Methyl WG […]), 8 gai/ha, 20 DAT, SETVI): 85%
% activity (Polygonum convolvulus; [2]): 30%
% activity (Matricaria chamomilla; [1]): 30%
% activity (Matricaria chamomilla; [2]): 30%
% activity (Matricaria chamomilla; [3]): 90%
% activity (Matricaria chamomilla; 20 DAT, mesosulfuron solo 9 gai/ha): 90%
% activity (Matricaria chamomilla; mesosulfuron solo (Mesosulfuron - Methyl WG […]), 2 gai/ha, 20 DAT, MATCH): 30%
% activity (Ambrosia elatior; [2]): 80%
% activity (Ambrosia elatior; [4]): 85%
% activity (Lolium multiflorum; [3]): 90%
% activity (Digitaria sanguinalis; [1]): 0%
% activity (Digitaria sanguinalis; [2]): 0%
% activity (Digitaria sanguinalis; [4]): 20%

Cc1c(C(=O)c2cnn(C)c2O)ccc(S(C)(=O)=O)c1C1=NOCC1 [topramezone]
% activity (Apera spica-venti; topramezone solo 3 gai/ha): 0%
% activity (Apera spica-venti; topramezone solo 6 gai/ha): 0%
% activity (Apera spica-venti; topramezone solo 12 gai/ha): 30%
% activity (Papaver rhoeas; [5]): 20%
% activity (Papaver rhoeas; [6]): 40%
% activity (Papaver rhoeas; PAPRH, solo topramezone (SC 336 g/l) 3 gai/ha, 21 DAT): 0%
% activity (Papaver rhoeas; PAPRH, solo topramezone (SC 336 g/l) 6 gai/ha, 21 DAT): 0%
% activity (Echinocloa crus-galli; ECHCG, solo topramezone (SC 336 g/l) 3 gai/ha, 21 DAT): 70%
% activity (Echinocloa crus-galli; ECHCG, solo topramezone (SC 336 g/l) 12 gai/ha, 21 DAT): 98%
% activity (Echinocloa crus-galli; ECHCG, solo topramezone (SC 336 g/l) 24 gai/ha, 21 DAT): 98%
% activity (Bromus sterilis; topramezone solo 3 gai/ha): 0%
% activity (Bromus sterilis; topramezone solo 6 gai/ha): 0%
% activity (Bromus sterilis; topramezone solo 12 gai/ha): 5%
% activity (Bromus sterilis; topramezone solo 24 gai/ha): 25%
% activity (Setaria viridis; [7]): 70%
% activity (Polygonum convolvulus; [7]): 0%
% activity (Polygonum convolvulus; [8]): 30%
% activity (Polygonum convolvulus; [5]): 30%
% activity (Polygonum convolvulus; [6]): 85%
% activity (Matricaria chamomilla; [8]): 30%
% activity (Alopecurus myosuroides; topramezone solo 3 gai/ha): 0%
% activity (Alopecurus myosuroides; topramezone solo 6 gai/ha): 0%
% activity (Alopecurus myosuroides; topramezone solo 12 gai/ha): 0%
% activity (Alopecurus myosuroides; topramezone solo 24 gai/ha): 10%
% activity (Alopecurus myosuroides; ALOMY, solo topramezone (SC 336 g/l) 3 gai/ha): 0%
% activity (Alopecurus myosuroides; ALOMY, solo topramezone (SC 336 g/l) 6 gai/ha): 0%
% activity (Alopecurus myosuroides; ALOMY, solo topramezone (SC 336 g/l) 12 gai/ha): 0%
% activity (Ambrosia elatior; [8]): 95%
% activity (Lolium multiflorum; [7]): 0%
% activity (Lolium multiflorum; [8]): 0%
% activity (Lolium multiflorum; [5]): 10%
% activity (Lolium multiflorum; [6]): 20%
% activity (Lolium multiflorum; LOLMU, solo topramezone (SC 336 g/l) 6 gai/ha, 21 DAT): 0%
% activity (Digitaria sanguinalis; [7]): 75%
% activity (Poa annua; topramezone solo 3 gai/ha): 0%
% activity (Poa annua; topramezone solo 6 gai/ha): 0%
% activity (Poa annua; topramezone solo 12 gai/ha): 0%
% activity (Poa annua; topramezone solo 24 gai/ha): 0%
% activity (Poa annua; POAAN, solo topramezone (SC 336 g/l) 3 gai/ha): 0%
% activity (Poa annua; POAAN, solo topramezone (SC 336 g/l) 6 gai/ha): 0%
% activity (Poa annua; POAAN, solo topramezone (SC 336 g/l) 12 gai/ha): 0%
% activity (Poa annua; POAAN, solo topramezone (SC 336 g/l) 24 gai/ha): 0%

Source: US10966426B2, “Herbicidal compositions comprising phenylpyrimidines” (BASF SE, priority 2016, dated 2021)
